Assay results as given in patent EP0652009A1, “Identification and use of protease inhibitors” (ELI LILLY AND COMPANY, priority 1993, dated 1995).

target: Cathepsin D (Homo sapiens, UniProt P07339); test: Assay 3: cathepsin D inhibition activity (non-cellular assay, chromogenic substrate); format: biochemical; set-up: Frozen human placental tissue was thawed and homogenized; from tissue; host or cells: human placenta; details: cathepsin D from human placental tissue, chromogenic substrate, pH 3.7, 37°C
Sequence (P07339 169-412 limits assumed): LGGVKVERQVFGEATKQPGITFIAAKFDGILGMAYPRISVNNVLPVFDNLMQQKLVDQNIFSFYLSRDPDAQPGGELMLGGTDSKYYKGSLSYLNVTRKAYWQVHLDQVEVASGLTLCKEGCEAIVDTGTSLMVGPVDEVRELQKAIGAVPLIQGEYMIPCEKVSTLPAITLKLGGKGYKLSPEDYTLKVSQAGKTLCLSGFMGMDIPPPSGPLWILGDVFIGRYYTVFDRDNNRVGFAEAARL
Sequence (P07339 65-162 limits assumed): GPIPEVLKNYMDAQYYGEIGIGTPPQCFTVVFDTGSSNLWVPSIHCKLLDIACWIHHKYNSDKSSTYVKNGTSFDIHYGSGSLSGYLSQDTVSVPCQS
Method: A third non-cellular assay for determining in vitro aspartyl protease inhibitory activity is generally described in Jupp, R.A. et al., (1990) Biochem. J., 265:871-878 and Rao et al., J. Med. Chem. (1993), in press. The assay is carried out by incubating a test compound with a suitable aspartyl protease, such as cathepsin D, in the presence of a chromogenic substrate. The inhibition constant, Ki, value may then be determined by quantifying the competitive inhibition of the hydrolysis of the chromogenic substrate. A variety of chromogenic substrates that are useful for assaying aspartyl protease activity are discussed in Dunn, et al., (1986) Biochem. J., 237:899-906. A preferred chromogenic substrate for a cathepsin D assay is disclosed in Scarborough, P.E. et al., Protein Science, (1993), 2:264-276.
Concentrations of substrate solutions and cleavage products may be verified using amino acid analysis. The enzyme preparations may be titrated with a tightly binding inhibitor to quantitate the active concentration of the enzyme. Enzyme concentrations are typically in the range of from 1-6 nM. Stock solutions of the test compound are prepared at concentrations ranging from 1.0 to 5.0 mg/mL, and then 50-100 µL portions of these stock solutions may be further diluted to a concentration in the range of 5 to 300 µM for rate determinations.
[…] Then, the test compounds are assayed over a concentration range of, for example, 5 to 300 µM for rate determinations.
A decrease in absorbance in the range of 284-324 nm may be monitored using a spectrophotometer. Absorbance readings are typically taken at various timepoints. The initial velocities are then plotted versus the initial substrate concentration. […] Estimates of Ki may then be determined using the Dixon construction. Dixon, M., (1953) Biochem J., 55:170-171.
If the ratio of the total active enzyme concentration to the estimated Ki value ([E]t/Ki) is less than 0.2, then the precise Ki value may be computed by using a non-linear curve fitting program based on the equation: v= Vmax [S]/[S] + Km (1 + [I]/Ki ) [formula] where v is the initial rate, [S] is the initial substrate concentration, [I] is the inhibitor concentration and Km and Ki are defined above. […] P.J.F., (1972) Biochem J., 127:321-333. This Assay is exemplfied in Assay 3.
The homogenate was centrifuged at 10,000 rpm for 30 minutes in a Sorvall GSA rotor. The supernatant was adjusted to pH 3.7 using 5.7N HCl and then sodium acetate was added to a concentration of 0.1M. The resultant mixture was incubated for 30 minutes at 0°C, resulting in the formation of a precipitate. This precipitate was removed by centrifugation (30 minutes, 10,000 rpm). The acidic supernatent was applied to a chromatography column (pepstatinyl agarose equilibrated with 0.1M sodium acetate, pH 3.5, 0.1% Brij 35, and 1M NaCl), washed until the OD₂₈₀ of the effluent returned to baseline, and then eluted with 50mM Tris-HCl, pH 8.6, 0.1% Brij 35, and 1M NaCl. The eluent was dialyzed against 10mM sodium phosphate, pH 7.0, 0.1% Brij 35, and 0.1M NaCl, and then applied to a 1 mL DEAE-Sephacel column equilibrated with the same buffer. Cathepsin D was recovered in the breakthrough fraction.
The enzyme mixture (125 µL buffer (0.1M sodium formate at pH 3.7), 1 µL of a 1mM solution of test compound, 4 µL of DMSO, enzyme and water to provide a total volume of 230 µL) was vortexed and prewarmed for four minutes before the addition of the chromogenic substrate. After warming, the enzyme mixture was added to 20 µL of a […] dilution of substrate solution. A control reaction mixture was similarly prepared without the addition of the test compound. The percent of inhibition of the initial rate of reaction in the presence of a particular concentration of test compound (i.e. 4 µM) may be determined for the test compound by monitoring the reaction mixture in parallel to the control reaction. […]

`CC(C)(C)NC(=O)c1ccccc1CC(O)C(Cc1ccccc1)NC(=O)C(CC(=O)NCc1ncc[nH]1)NC(=O)c1ccc2ccccc2n1` (stereo not drawn) [Example 17, [1S-(1R*,4R*,5S*)]-N-(1-(2-(N-2-Imidazolylmethyl)amino)-2-oxoethyl)-2-oxo-3-aza-4-phenylmethyl-5-hydroxy-6-(2-(1-t-butylamino-1-oxomethyl)phenyl)hexyl)-2-quinolinyl carboxamide] was tested. Which Ki did it give?
Its Ki is 2.3 ± 0.2 µM.

Which Ki does the source give for `CC(C)C(NC(=O)OCc1ccccn1)C(=O)NC(Cc1ccccc1)C(O)C(O)C(Cc1ccccc1)NC(=O)C(NC(=O)OCc1ccccn1)C(C)C` [Example 35, 1,6-Diphenyl-2(S),5(S)-di[N-[2(S)-N(pyrid-2-ylmethoxycarbonyl)amino-3-methylbutanoyl]amino]-3,4-dihydroxyhexane] here?
Its Ki is 0.086 µM.

For `Cc1cc(C(=O)N[C@@H](CC(N)=O)C(=O)N[C@@H](Cc2ccccc2)[C@H](O)Cc2ccccc2C(=O)NC(C)(C)C)nc2ccccc12` [Example 10, [1S-(1R*,4R*,5S*)]-N-(1-(2-Amino-2-oxoethyl)-2-oxo-3-aza-4-phenylmethyl-5-hydroxy-6-(2-(1-t-butylamino-1-oxomethyl)phenyl)hexyl)-4-methylquinolin-2-yl carboxamide], which Ki is on record?
Its Ki is 5.51 µM.

`CC[C@H](NC(=O)OCc1ccccc1)C(=O)N[C@@H](Cc1ccccc1)[C@@H]1O[C@@H]1[C@H](Cc1ccccc1)NC(=O)[C@H](CC)NC(=O)OCc1ccccc1` [Example 2, 1,6-Diphenyl-2(S);5(S)-di[N-[2(S)-N(benzyloxycarbonyl)aminobutanoyl]amino]-3,4-cis-epoxyhexane] was tested. Which Ki did it give?
The Ki was 0.75 ± 0.14 µM.

For `CC(C)(C)NC(=O)c1ccccc1CC(O)C(Cc1ccccc1)NC(=O)C(CC(N)=O)NC(=O)C(Cc1cccc2ccccc12)NC(=O)OC(C)(C)C` (stereo not drawn) [Example 26, [2R-(2R*,3S*,6S*,9S*)]-N-t-Butyl-2-[2-hydroxy-3-phenylmethyl-4,7-diaza-5,8-dioxo-6-(2-amino-2-oxoethyl)-9-N(t-butoxycarbonyl)amino-10-naphth-1-yl]decyl benzamide], which Ki is on record?
Its Ki is 2.3 ± 0.41 µM.

Which Ki does the source give for `Cc1ccc(CC(O)C(Cc2ccccc2)NC(=O)C(CC(N)=O)NC(=O)c2ccc3ccccc3n2)c(C(=O)NC(C)(C)C)c1` (stereo not drawn) [Example 7, [1S-(1R*,4R*,5S*)]-N-[1-(2-Amino-2-oxoethyl)-2-oxo-3-aza-4-phenylmethyl-5-hydroxy-6-(2-(1-t-butylamino-1-oxomethyl)-4-methylphenyl)hexyl]-2-quinolinyl carboxamide] here?
Its Ki is 0.42 ± 0.06 µM.

`CC(C)C(NC(=O)OCc1ccccc1)C(=O)NC(Cc1ccccc1)C(O)C(O)C(Cc1ccccc1)NC(=O)C(NC(=O)OCc1ccccc1)C(C)C` [Example 33, 1,6-Diphenyl-2(S),5(S)-di[N-[2(S)-N(benzyloxycarbonyl)amino-3-methyl-butanoyl]amino]-3,4-dihydroxyhexane] was tested. Which Ki did it give?
The Ki was 0.023 ± 0.003 µM.

Which Ki does the source give for `CCC(NC(=O)N(C)Cc1ccc2ccccc2n1)C(=O)NC(Cc1ccccc1)C1OC1C(Cc1ccccc1)NC(=O)C(CC)NC(=O)N(C)Cc1ccc2ccccc2n1` [Example 4, 1,6-Diphenyl-2(S);5(S)-di[N-[2(S)-N-[[N(methyl)-N(quinolin-2-ylmethyl)amino]carbonyl]aminobutanoyl]amino]-3,4-cis-epoxyhexane] here?
Its Ki is 6.2 µM.

With `CC(C)C(NC(=O)OCc1ccccc1)C(=O)NC(Cc1ccccc1)C1OC1C(Cc1ccccc1)NC(=O)C(NC(=O)OCc1ccccc1)C(C)C` [Example 1, 1,6-Diphenyl-2(S);5(S)-di[N-[2(S)-N(benzyloxycarbonyl)amino-3-methyl-butanoyl]amino]-3,4-cis-epoxyhexane] as the compound, how does the Ki read?
The Ki was 1.16 ± 0.26 µM.
